Key:
[1] = tested on: Human research corneas (de-epithelialized, 8.5-mm buttons) in collagenase A; assay: Resistance to collagenase A digestion (time to total dissolution of cornea buttons); details: 0.3% collagenase A, 37° C.; for time to dissolution in collagenase A: untreated corneas 5.47 ± 0.21 hours; for Collagenase time to dissolution: 150 rpm, ex vivo de-epithelialized corneas, n=5, mean ± SD
Text: Human research corneas were obtained from Tissue Bank International (Baltimore, Md.) and North Carolina Eye Bank (Winston-Salem, N.C.). Riboflavin 5′-phosphate sodium salt hydrate, 20% (w/w) dextran solution (from Leuconostoc mesenteroides) and collagenase A (from Clostridium histolyticum, E.C. 3.4.24.3) were obtained from Sigma Aldrich (St. Louis, Mo.). Barron® artificial anterior chambers were purchased from Katena Eye Instruments (Denville, N.J.). The VEGA LED-based UV emitter was purchased from Costruzione Strumenti Oftalmici (Firenze, Italy). The Excells E24 incubator shaker series was purchased from New Brunswick Scientific (Enfield, Conn.).
The corneas were obtained in OptiZol® solution and stored at 4° C. until use. All experiments were performed within 2 weeks from the date of death of the donor. Each cornea was fitted into a Barron® artificial anterior chamber with normal balanced salt solution followed by mechanical removal of 8 mm of the central corneal epithelium with a blunt blade.
Conventional riboflavin-UVA (R+UVA) crosslinking was performed in an ex vivo fashion according to the Dresden protoco.^1-2 50 mg of riboflavin 5′-phosphate was added to 50 mL of dextran (w/w) and mixed thoroughly to make 0.1% riboflavin (1 mg/mL) solution. All solutions were covered in aluminum foil for protection from room UV light and stored at 4° C. until use. Riboflavin solution was topically administered every 5 minutes onto the surface of the de-epithelialized cornea for total instillation period of 30 minutes. UVA 370 nm light (X-Vega, Sooft SPA) was then focused onto the surface of the cornea at an irradiance of 3 mW/cm^2 (5.4 J/cm^2 fluence) for 5 minutes. The five-minute UVA exposure sequence was repeated 5 more times for a total UVA exposure time of 30 minutes. Prior to each 5-minute UVA treatment sequence, one drop of balanced salt solution and one drop of riboflavin were administered onto the surface of the cornea.
Each de-epithelialized cornea was placed on a Barron® artificial anterior chamber and underwent a treatment protocols (below) that included either topical verteporfin solution alone, non-thermal laser alone, or a combination of both topical verteporfin and non-thermal laser. Verteporfin solution was applied topically using the same formulation that is administered intravenously for the treatment of choroidal neovascularization^3-8 (6 mg/mL, Visudyne; Novartis Ophthalmics AG, Hettingen, Switzerland). A 689 nm wavelength non-thermal laser (Opal Photoactivator; Coherent Inc., Santa Clara, Calif.) was applied using a spot size of 7 mm at a power intensity of 600 mW/cm^2.
1. Topical verteporfin (V), without laser: Verteporfin solution was topically administered onto the surface of a de-epithelialized cornea every minute for 15 minutes. The tissue was not exposed to laser therapy.
3. Combined treatment of verteporfin with non-thermal laser for one treatment sequence (V+NTL-1): Verteporfin, which was prepared at a dose of 6 mg/ml (one drop per minute) was applied onto the de-epithelialized corneas every minute for fifteen minutes followed by one NTL treatment sequence. A 689 nm nonthermal laser light was delivered directly over a cornea with spot sizes (7 mm) at a power intensity of 600 mW/cm^2 for one minute only.
4. Combined treatment of Verteporfin with Non-Thermal Laser Therapy for six treatment sequences (V+NTL-6): Verteporfin solution (6 mg/ml) was topically applied every minute for fifteen minutes followed by six NTL sequences. One drop of balanced salt solution and one drop of verteporfin was administered between each treatment sequence. […]

Human research corneas [2] = assay: Gross observation of corneal rigidity / curvature; details: for rigidity on gross examination versus untreated corneas: cornea strips placed horizontally in a clamp (FIG. 3); for Gross observation: ex vivo treated corneas
Procedure: (§1) The biomechanical properties of untreated corneas and corneas treated with R+UVA and V+NTL6 were measured using gross observation, compression, creep and tensile strength testing. The corneas were stored in Optisol GS and refrigerated at 4° C. until the time of testing.
For example, when cornea strips were placed horizontally in a clamp, the tissue treated by V+NTL6 and by R+UVA were noted to have a more pronounced curvature than the untreated control group (FIG. 3).

Human research corneas [3] = assay: Creep testing under constant force of 15 N; details: constant force 15 N, between 0 and 4.25 minutes; untreated −3.46
Procedure: The biomechanical properties of untreated corneas and corneas treated with R+UVA and V+NTL6 were measured using gross observation, compression, creep and tensile strength testing. The corneas were stored in Optisol GS and refrigerated at 4° C. until the time of testing. […] The sample was held under a constant force of 15 N and the strain was measured over a period of 4.25 minutes. Creep testing has been used to evaluate the biomechanical strength of tissue, such as the cornea, by applying a constant stress and monitoring the rate of deformation ^21In this study, cornea tissue was kept under a constant stress using a compression force of 15 N and then the slope of the strain-time curve was calculated between 0 and 4.25 minutes and represented the rate of tissue deformation.

Human research corneas [4] = assay: Compression testing (Q800 DMA), Young's modulus; details: for slope of the stress-strain compression data versus untreated corneas: FIG. 5; for Young's modulus: linear fit of stress-strain curve between 0.08 and 0.10 MPa, untreated 0.43 MPa
Procedure: as §1
Compression testing was performed using a Q800 DMA (TA instruments). The tissue was placed within a submersion clamp and centered beneath a custom 8 mm diameter compression plate, as shown in FIG. 2. The submersion clamp was filled with 1× phosphate buffered saline (PBS) solution to prevent the sample from drying out during the test.
The elasticity of any tissue can be determined by measuring the stress (force on a cross-section point) and its relative strain (proportional deformation)^12,14. The Young's modulus is the proportion between the stress and strain values and reflects the elasticity of the tissue. A small Young's modulus value reflects more elasticity of a material and is represented in units of Newton/m^2.
Young's modulus was calculated as a linear fit of the final portion of the stress-strain curve, between stress values of 0.08 and 0.10 MPa (FIG. 6). Tissue treated by R+UVA and V+NTL6 had statistically larger moduli than untreated corneas. Corneas treated by V+NTL6 appeared to be slightly more stiff (0.80 vs 0.43 MPa, p<0.005) than those treated by R+UVA (0.70 vs 0.43 MPa, p<0.05), however this difference was not statistically significant.

[5] = tested on: Human research corneas (corneal strips); assay: Tensile strength testing (strip extensometry); details: for maximum stress observed prior to failure: tensile test at 0.025 mm/sec until failure, untreated 3.02 (FIG. 8); for maximum modulus value (tensile): versus untreated corneas (FIG. 9B); for instantaneous modulus values at 4%, 6%, and 8% strain (toe region): versus untreated corneas (FIG. 11)
Procedure: as §1
A rectangular strip of corneal tissue (approximately 3 mm wide and 14 mm long) was cut from each sample with a scalpel. The corneal strips were individually clamped between the two jaws of a microcomputer-controlled biomaterial tester (Minimat, Rheometriv Scientific GmbH).^15-20 Tensile testing was performed using a Shimadzu AGS-X (Cambridge Polymer Group, Inc. 56 Roland St suite 310, Boston, Mass. 02129, United States) load frame equipped with a 50 N load cell and pneumatic grips, which were lined with sandpaper for prevent tissue slippage. The pneumatic grips compensated for any dimensional change as the samples were stretched and allowed a fixed grip pressure of 35 pressure per square inch (psi) to be applied. The initial grip separation was set to 4.5 mm and tested at a rate of 0.025 mm/sec until failure. The strain (ε) was then increased linearly at a certain velocity, and the relative stress (s) was measured.
In this study, strip extensometry was performed using rectangular strips of corneal tissue that was extracted from untreated and treated corneas. The maximum stress observed prior to failure, the maximum modulus values, and the instantaneous modulus values at specific strain percentages were calculated. The stress-strain data can be broadly separated into two regions: an initial toe region that covers strain values typically observed in vivo, and the region covering extreme deformations not likely to be observed in vivo.
Finally, the initial toe region of each sample group was compared. The stress-strain data was offset such that the sample length at a stress of 0.02 MPa was defined as 0% strain (this offset is equivalent to defining a pre-stress of […] at the start of the tensile test). A representative plot showing the toe region of the tensile data for one specimen from each sample group is shown in FIG. 10, and the instantaneous modulus values at 4%, 6%, and 8% strain for each sample group are shown in FIG. 11.

Cc1cc2nc3c(=O)[nH]c(=O)nc-3n(C[C@H](O)[C@H](O)[C@H](O)COP(=O)([O-])O)c2cc1C.[Na+] [R+UVA, Riboflavin 5′-phosphate sodium salt hydrate]
time to dissolution in collagenase A ([1]; listed as riboflavin-UVA, sodium salt hydrate): 20.06 ± 1.23 h
time to dissolution in collagenase A ([1]; sodium salt hydrate): 20.06 h
rigidity on gross examination versus untreated corneas (Human research corneas [2]): much more rigidity than untreated corneas
creep rate (slope of the strain-time curve) (Human research corneas [3]): faster creep rate, but the difference was not statistically significant
slope of the stress-strain compression data versus untreated corneas (Human research corneas [4]): steeper
Young's modulus (Human research corneas [4]): 0.70 MPa
maximum stress observed prior to failure [5]: larger stress values prior to failure
maximum modulus value (tensile) [5]: statistically larger maximum modulus values than untreated corneas
instantaneous modulus values at 4%, 6%, and 8% strain (toe region) [5]: no statistically significant difference was observed

verteporfin
Collagenase time to dissolution [1]: 5.95 ± 0.33 h
time to dissolution in collagenase A [1]: 5.95 h
Gross observation (Human research corneas [2]): No rigidity

verteporfin [V+NTL1]
Collagenase time to dissolution ([1]; listed as V-NLT-1): 5.96 ± 0.39 h
time to dissolution in collagenase A [1]: 5.96 ± 0.39 h
Gross observation (Human research corneas [2]; listed as V-NLT-1): No rigidity

verteporfin [V+NTL6]
Collagenase time to dissolution ([1]; listed as V-NLT-6): 19.75 ± 0.95 h
time to dissolution in collagenase A [1]: 19.75 ± 0.95 h
rigidity on gross examination versus untreated corneas (Human research corneas [2]): much more rigidity than untreated corneas
Gross observation (Human research corneas [2]; listed as V-NLT-6): Cornea rigid
creep rate (slope of the strain-time curve) (Human research corneas [3]): −1.87
slope of the stress-strain compression data versus untreated corneas (Human research corneas [4]): steeper
Young's modulus (Human research corneas [4]): 0.80 MPa
maximum stress observed prior to failure [5]: 7.67
maximum modulus value (tensile) [5]: statistically larger maximum modulus values than untreated corneas
instantaneous modulus values at 4%, 6%, and 8% strain (toe region) [5]: statistically larger modulus values than untreated corneas

Reference: patent US10918719B2, “Methods for cross-linking corneal collagen with verteporfin for the treatment of disorders of the eye” (Massachusetts Eye and Ear Infirmary, priority 2014, dated 2021)
